Measured values reported in patent publication US20100291151A1, “1-METHYLPYRAZOLE MODULATORS OF SUBSTANCE P, CALCITONIN GENE-RELATED PEPTIDE, ADRENERGIC RECEPTOR, AND/OR 5-HT RECEPTOR” (priority 2009, published 2010).

How the values were obtained:
Format in all cases: in vitro ADME
Supersomes CYP3A4 = biological target: T1, Supersomes CYP3A4 (Homo sapiens, UniProt P08684); test: Individual recombinant CYP isoform stability assay, CYP3A4; conditions: 100 pmol per mL CYP3A4, 5 microgram per mL compound, 37° C., 0-60 minutes
T1 construct: purchased
Procedure: (§1) In Vitro Individual Recombinant CYP Isoform Stability Assays
(§2) Individual recombinant CYP isoform stability assays were conducted with Supersomes™ CYP2C19, CYP3A4, CYP3A5, CYP2D6, CYP2C8, and CYP2C9. The CYP isoforms were individually taken up in a NADPH-generating system (4.4 mM NADPH, 51.2 mM glucose 6-phosphate, 12 units per mL glucose 6-phosphate dehydrogenase and 6.6 mM magnesium chloride) in 2% sodium bicarbonate. The final assay concentrations were 100 pmol per mL for the following isoforms: CYP3A4, CYP2C19, and CYP2D6; other CYP isoforms final assay concentrations were 150 pmol per mL, including: CYP1A2 and CYP2C9; and yet other CYP isoforms final assay concentrations were 200 pmol per mL, including: CYP3A5 and CYP2C8. Test compounds were prepared as solutions in 20% acetonitrile-water and added to the assay mixture (final assay concentration 5 microgram per mL) and incubated at 37° C. Final concentration of acetonitrile in the assay should be <1%. Aliquots (50 μL) were taken out at times 0, 15, 30, 45, and 60 minutes, and diluted with ice cold acetonitrile (200 μL) to stop the reactions. Samples were centrifuged at 12,000 RPM for 10 minutes to precipitate proteins. Supernatants were transferred to microcentrifuge tubes and stored for LC/MS/MS analysis of the degradation half-life of the test compounds. […]

Supersomes CYP3A5 = biological target: T2, Supersomes CYP3A5 (Homo sapiens, UniProt P20815); test: Individual recombinant CYP isoform stability assay, CYP3A5; conditions: 200 pmol per mL CYP3A5, 5 microgram per mL compound, 37° C., 0-60 minutes
T2 construct: purchased
Procedure: as §1, §2

Supersomes CYP2C8 = biological target: T3, Supersomes CYP2C8 (Homo sapiens, UniProt P10632); test: Individual recombinant CYP isoform stability assay, CYP2C8; conditions: 200 pmol per mL CYP2C8, 5 microgram per mL compound, 37° C., 0-60 minutes
T3 construct: purchased
T3 sequence (P10632 1-490): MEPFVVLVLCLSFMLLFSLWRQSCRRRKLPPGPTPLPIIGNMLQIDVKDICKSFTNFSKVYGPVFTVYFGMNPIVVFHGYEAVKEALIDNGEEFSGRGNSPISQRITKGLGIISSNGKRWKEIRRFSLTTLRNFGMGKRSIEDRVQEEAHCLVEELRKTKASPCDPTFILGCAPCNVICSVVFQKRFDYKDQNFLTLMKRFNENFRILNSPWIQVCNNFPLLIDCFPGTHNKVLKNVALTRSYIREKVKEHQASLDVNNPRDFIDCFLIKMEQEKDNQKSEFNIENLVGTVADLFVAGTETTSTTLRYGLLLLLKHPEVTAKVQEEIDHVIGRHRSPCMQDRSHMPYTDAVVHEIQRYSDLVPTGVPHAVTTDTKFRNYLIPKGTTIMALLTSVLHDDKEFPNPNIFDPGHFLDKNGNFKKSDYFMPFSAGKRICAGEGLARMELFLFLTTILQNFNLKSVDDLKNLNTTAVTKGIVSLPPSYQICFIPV
Procedure: as §1, §2

Supersomes CYP2C9 = biological target: T4, Supersomes CYP2C9 (Homo sapiens, UniProt P11712); test: Individual recombinant CYP isoform stability assay, CYP2C9; conditions: 150 pmol per mL CYP2C9, 5 microgram per mL compound, 37° C., 0-60 minutes
T4 construct: purchased
Procedure: as §1, §2

T4 sequence (P11712 whole entry, canonical isoform): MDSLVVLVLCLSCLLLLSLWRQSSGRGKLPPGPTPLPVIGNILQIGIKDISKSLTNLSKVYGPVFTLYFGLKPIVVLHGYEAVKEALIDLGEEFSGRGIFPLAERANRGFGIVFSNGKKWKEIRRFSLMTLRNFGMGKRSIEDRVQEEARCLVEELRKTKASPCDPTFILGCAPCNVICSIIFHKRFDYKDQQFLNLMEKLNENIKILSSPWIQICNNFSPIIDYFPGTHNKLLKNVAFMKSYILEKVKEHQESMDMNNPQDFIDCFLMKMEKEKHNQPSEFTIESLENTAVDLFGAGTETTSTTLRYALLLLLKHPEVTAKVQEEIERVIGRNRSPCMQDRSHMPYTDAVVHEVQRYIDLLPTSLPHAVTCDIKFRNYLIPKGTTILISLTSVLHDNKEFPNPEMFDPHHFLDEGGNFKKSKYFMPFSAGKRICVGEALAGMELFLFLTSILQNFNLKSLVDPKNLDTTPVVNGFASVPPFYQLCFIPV
T1 sequence (P08684 whole entry, canonical isoform): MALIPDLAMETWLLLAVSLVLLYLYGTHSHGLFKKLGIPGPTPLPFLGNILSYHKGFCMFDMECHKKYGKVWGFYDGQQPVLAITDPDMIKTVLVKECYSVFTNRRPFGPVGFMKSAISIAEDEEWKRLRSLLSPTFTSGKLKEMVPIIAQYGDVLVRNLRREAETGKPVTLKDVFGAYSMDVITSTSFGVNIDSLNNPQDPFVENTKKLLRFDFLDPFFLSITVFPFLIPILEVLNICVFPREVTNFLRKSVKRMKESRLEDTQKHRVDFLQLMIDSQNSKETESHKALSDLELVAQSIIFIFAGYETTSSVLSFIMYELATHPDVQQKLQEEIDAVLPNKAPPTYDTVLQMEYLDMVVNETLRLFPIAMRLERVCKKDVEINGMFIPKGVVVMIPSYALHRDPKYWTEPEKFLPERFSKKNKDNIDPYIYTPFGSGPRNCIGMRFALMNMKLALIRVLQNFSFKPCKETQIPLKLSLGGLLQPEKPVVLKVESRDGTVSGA
T2 sequence (P20815 whole entry, canonical isoform): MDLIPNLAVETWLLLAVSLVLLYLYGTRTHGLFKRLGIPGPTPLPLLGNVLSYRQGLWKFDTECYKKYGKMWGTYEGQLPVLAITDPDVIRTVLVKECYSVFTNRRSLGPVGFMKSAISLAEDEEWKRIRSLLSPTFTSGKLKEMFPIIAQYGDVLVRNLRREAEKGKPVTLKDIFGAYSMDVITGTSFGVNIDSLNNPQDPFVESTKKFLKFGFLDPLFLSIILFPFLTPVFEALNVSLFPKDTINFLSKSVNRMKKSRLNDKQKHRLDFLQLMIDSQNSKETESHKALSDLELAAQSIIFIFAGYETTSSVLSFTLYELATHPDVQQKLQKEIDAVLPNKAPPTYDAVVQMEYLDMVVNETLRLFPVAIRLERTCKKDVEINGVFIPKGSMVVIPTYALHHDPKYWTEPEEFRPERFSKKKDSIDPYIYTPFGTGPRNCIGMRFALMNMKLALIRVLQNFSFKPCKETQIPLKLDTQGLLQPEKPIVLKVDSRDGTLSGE

CN(C)CCOC(c1ccccc1)c1ccnn1C (stereo not shown) [Cizolirtine, N,N-dimethyl-2-[(1-methyl-1H-pyrazol-5-yl)phenylmethoxy]ethanamine]
not metabolized: metabolism by CYP3A4 (Supersomes CYP3A4) | metabolism by CYP3A5 (Supersomes CYP3A5) | metabolism by CYP2C8 (Supersomes CYP2C8) | metabolism by CYP2C9 (Supersomes CYP2C9)
